Measured values: patent publication US6300345A, “Cyanoguanidines as cell proliferation inhibitors” (Leo Pharmacuetical Products Ltd. A/S (L.o slashed.vens …, priority 1997, dated 2001)

Tests used:
Type in all cases: cell-based
[1] = tested on: human non small cell lung cancer (NCI-H460); experiment: Inhibition of tumour cell proliferation in vitro ([3H]thymidine incorporation), NCI-H460; settings: NCI-H460, 24 hours
Procedure: (§1) The inhibition of tumour cell proliferation was studied using different types of human cancer cell lines. The cell lines under investigation were small cell lung carcinoma (NYH), non small cell lung carcinoma (NCI-H460), and breast cancer (MCF-7) using the following general procedure:
(§2) The cells were cultured in vitro for 24 hours in the presence of the compound under investigation. DNA synthesis was measured by incorporation of [3H]thymidine, and the median inhibitory concentrations (IC50) of the compounds were calculated.

[2] = tested on: human breast cancer (MCF-7); experiment: Inhibition of tumour cell proliferation in vitro ([3H]thymidine incorporation), MCF-7; settings: MCF7, MCF-7, 24 hours
Procedure: as §1, §2

[3] = tested on: human small cell lung carcinoma (NYH); experiment: Inhibition of tumour cell proliferation in vitro ([3H]thymidine incorporation), NYH; settings: 24 hours
Procedure: as §1, §2

Row | Compound | IC50 [1] | IC50 [2] | IC50 [3]
1 | N#CN=C(NCCCCCCCCCCCCNC(=NC#N)Nc1cccnc1)Nc1cccnc1 [Example No. 6, 1,12-Bis(N'-cyano-N"-3-pyridylguanidino)dodecane] | 65 nM | 26 nM | 4.4 nM
2 | N#CN=C(NCCCCCCCCCCCCNC(=NC#N)Nc1ccncc1)Nc1ccncc1 [Example No. 14, 1,12-Bis(N'-cyano-N"-4-pyridylguanidino)dodecane] | 69 nM | 13 nM | 0.5 nM
3 | N#CN=C(NCCCCCCCCCCNC(=NC#N)Nc1ccncc1)Nc1ccncc1 [Example No. 8, 1,10-Bis(N'-cyano-N"-4-pyridylguanidino)decane] | 65 nM | 6.6 nM | 0.91 nM
